Assay results as given in patent publication US20090130128A1, “Antiinfective Proanthocyanidin Compounds and Methods of Use Thereof” (priority 2007, published 2009).
Read-outs that look alike come from different tables or passages of the source.

Legend:
[1] = tested on: Rhinovirus particles; assay type: binding
[2] = tested on: H5N1 virions; assay type: binding, Influenza A virus (H5N1); conditions: for relative percent of total binding species: bound to H5N1 after incubation in botanical extract
[3] = tested on: Dengue-2 virus particles; test: Viral Direct Binding Assay with DART TOF-MS
[4] = tested on: H1N1 virions; test: Viral Direct Binding Assay with DART TOF-MS; set-up: species or system Influenza A virus (H1N1); conditions: for relative percent of total binding species: bound to H1N1 after incubation in botanical extract
[5] = tested on: HIV-1 virions; assay type: binding
[6] = tested on: pseudotyped HIV-1 virions; assay type: cell-based; conditions: GHOST cells, range over clones
[7] = bound to Den-2 after incubation in botanical extract

Tristenonol
relative percent of total binding species [1]: 0%
relative percent of total binding species [2]: 6.9%
relative percent of total binding species [3, 7]: 0%
relative percent of total binding species [4]: 26.6%
relative percent of total binding species [5]: 0%

Proanthocyanidin B2
IC100 values for HIV-1 infection [6]: never achieved

Istrocyanidin
relative percent of total binding species [1]: 30.5%
relative percent of total binding species [2]: 6.2%
relative percent of total binding species [3, 7]: 21.2%
relative percent of total binding species [4]: 3.7%
relative percent of total binding species [5]: 14.4%

COc1cc(OC)c2c(=O)c(O)c(-c3ccc(OC)c(OC)c3)oc2c1 [Averionol]
Aver:Istro Ratio [1]: 2.3
relative percent of total binding species [1]: 69.5%
Aver:Istro Ratio ([2]; binding ratio Averionol to Istrocyanidin on H5N1): 14.0
relative percent of total binding species [2]: 86.9%
Aver:Istro Ratio [3]: 3.7
relative percent of total binding species [3]: 78.5%
Aver:Istro Ratio ([4]; binding ratio Averionol to Istrocyanidin on H1N1): 18.9
relative percent of total binding species [4]: 69.8%
Aver:Istro Ratio [5]: 5.9
relative percent of total binding species [5]: 85.6%
